Among the test systems are A498; OVCAR-3; HCC 2998; SF-539; KM12; Malme-3M; HT-29; A549; UO-31; CCRF-CEM; TK-10; SK-MEL-28; M14; SF-268; IGROV-1; SK-OV-3; SK-MEL-2; SF-295.
Assay in all cases: NCI-60 cell line screen, 48 h

The record followed here is ChEMBL document CHEMBL1201862, “PubChem BioAssay data set” (2004).

Molecules are shown by their SMILES.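 Cells were grown in 96-well plates and exposed to each compound for 48 hours at five concentrations; endpoints were interpolated linearly between bracketing concentrations, or set to the highest concentration if not reached. Here, GI50 denotes the concentration required for 50% inhibition of growth.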 Activity calls are given as the source filed them. No stated cut-off is given here; in the data, active = GI50 up to about 1.1 µM and inactive = higher. Non-standard residues stand in square brackets, D forms with d. Residues, ends and D or L forms follow the SMILES beside them.

As to `CCOC(=O)NC1CC2CCC1(OC)C=C2C` (stereo unspecified), the GI50 in the assay with A498, in the assay with OVCAR-3, in the assay with HCC 2998, with SF-539, in the assay with KM12 and in the assay with Malme-3M was > 100 µM (inactive) each time. Also, the GI50 with HT-29, with A549, in the assay on UO-31, with CCRF-CEM, with TK-10 and in the assay with SK-MEL-28 was > 100 µM (inactive) in each case. In addition, the GI50 in the assay with M14, in the assay with SF-268, in the assay on IGROV-1, in the assay on SK-OV-3, with SK-MEL-2 and in the assay on SF-295 was > 100 µM (inactive) throughout.

As to `CN(C)CCNc1c2ccccc2c2c3c(cccc13)C(=O)N(CCN(C)C)C2=O`, the GI50 is 0.641 µM (active) with A498; 0.112 µM (active) in the assay on OVCAR-3; 0.152 µM (active) in the assay on HCC 2998; 0.374 µM (active) in the assay on SF-539; 0.232 µM (active) with KM12; 0.348 µM (active) in the assay with Malme-3M. The GI50 in the assay with HT-29 was 0.029 µM (active); in the assay on A549, 0.193 µM (active); in the assay with UO-31, 1.61 µM (inactive); in the assay with CCRF-CEM, 0.111 µM (active); in the assay with SK-MEL-28 it was 0.0735 µM (active); in the assay with SF-268 it was 0.22 µM (active). In addition, the GI50 in the assay on IGROV-1 was 0.0968 µM (active); in the assay with SK-OV-3, 0.221 µM (active); in the assay on SK-MEL-2, 0.188 µM (active); in the assay with SF-295, 0.069 µM (active).

Take `COC(=O)c1s/c(=N\C(=S)N(C)C)n(-c2ccc(Cl)cc2)c1C(=O)OC`: the GI50 in the assay on A498 is > 100 µM (inactive); with OVCAR-3, > 100 µM (inactive); in the assay on HCC 2998, > 100 µM (inactive); in the assay with SF-539, 95.5 µM (inactive); in the assay with KM12, > 100 µM (inactive); with Malme-3M it was > 100 µM (inactive). Besides, the GI50 with HT-29, in the assay with A549, in the assay with UO-31, in the assay with CCRF-CEM, with TK-10 and in the assay with SK-MEL-28 was > 100 µM (inactive) in each case. The GI50 in the assay with M14 is > 100 µM (inactive); with SF-268 it was > 100 µM (inactive); with IGROV-1, > 10 µM (inactive); with SK-OV-3, > 10 µM (inactive); with SK-MEL-2 it was > 100 µM (inactive); in the assay with SF-295 it was > 100 µM (inactive).

On to `Cc1noc(/N=C2\C=C(Nc3onc(C)c3C)C(=O)c3ccccc32)c1C`, for which the GI50 in the assay with A498 was > 100 µM (inactive); with OVCAR-3, 2.88 µM (inactive); with HCC 2998 it was > 100 µM (inactive); with SF-539, > 100 µM (inactive); in the assay with KM12, > 100 µM (inactive); in the assay with Malme-3M, > 100 µM (inactive). The GI50 in the assay with HT-29 was > 100 µM (inactive); in the assay on A549, 87.1 µM (inactive); with UO-31, 17.6 µM (inactive); in the assay with CCRF-CEM, > 100 µM (inactive); in the assay with TK-10, > 100 µM (inactive); with SK-MEL-28, > 100 µM (inactive). The GI50 is > 100 µM (inactive) in the assay with M14; 86.3 µM (inactive) in the assay on SF-268; > 100 µM (inactive) in the assay on IGROV-1; > 100 µM (inactive) in the assay on SK-OV-3; 48.1 µM (inactive) in the assay with SK-MEL-2; > 100 µM (inactive) in the assay with SF-295.

As to `CC1=NOC(=O)C1/N=N/c1ccc(Br)c(C)c1` (stereo unspecified), the GI50 with A498 was 21.4 µM (inactive); in the assay with OVCAR-3, 17.2 µM (inactive); in the assay on HCC 2998, 24.8 µM (inactive); in the assay on SF-539, 20.2 µM (inactive); in the assay with KM12 it was 26.1 µM (inactive); in the assay on Malme-3M, 18.7 µM (inactive). In addition, the GI50 in the assay with HT-29 is 36.2 µM (inactive); in the assay on A549, 20.3 µM (inactive); in the assay with CCRF-CEM it was 11.8 µM (inactive); in the assay on TK-10, 18.6 µM (inactive); in the assay with SK-MEL-28 it was 26.6 µM (inactive); in the assay with M14, 20.5 µM (inactive). The GI50 in the assay with SF-268 is 22.1 µM (inactive); in the assay on IGROV-1 it was 19.2 µM (inactive); with SK-OV-3, 34.8 µM (inactive); in the assay on SK-MEL-2, 16.3 µM (inactive); with SF-295 it was 23 µM (inactive).

As to `CC(C)C[C@H](NC(=O)[C@H](CC(C)C)NC(=O)[C@@H](Cc1c[nH]c2ccccc12)NC(=O)[C@H](Cc1ccccc1)NC(=O)[C@@H](Cc1c[nH]c2ccccc12)NC(=O)[C@H](CCC(N)=O)NC(=O)[C@H](CCC(N)=O)NC(=O)[C@H]1CCCN1C(=O)[C@@H](N)CCCCN)C(N)=O` (H-K[dP]QQ[dW]F[dW]LL-NH2), the GI50 with A498, with OVCAR-3, with HCC 2998, with SF-539, in the assay on KM12 and with Malme-3M was > 100 µM (inactive) in each case. Also, the GI50 with HT-29, with A549, in the assay with UO-31, in the assay on CCRF-CEM, with SK-MEL-28 and in the assay with SF-268 was > 100 µM (inactive) in each case. In addition, the GI50 with IGROV-1, in the assay on SK-OV-3, with SK-MEL-2 and with SF-295 was > 100 µM (inactive) in each case.

For `COc1ccc(N2C(=O)[C@@H]3[C@@H]4CC(C)CC[C@@H]4c4c([nH]c5ccccc45)[C@@H]3C2=O)cc1` (stereo partly specified), the GI50 is 16.4 µM (inactive) in the assay on A498; 19.8 µM (inactive) with OVCAR-3; 13.5 µM (inactive) in the assay with HCC 2998; 8.38 µM (inactive) with SF-539; 50.1 µM (inactive) with KM12; 34.4 µM (inactive) with Malme-3M. Moreover, the GI50 in the assay on HT-29 is 47.4 µM (inactive); in the assay on A549, 17.3 µM (inactive); in the assay on UO-31 it was 17 µM (inactive); in the assay on CCRF-CEM, 24.2 µM (inactive); with TK-10 it was 18.8 µM (inactive); with SK-MEL-28, 36 µM (inactive). Besides, the GI50 in the assay on M14 was 26.4 µM (inactive); in the assay on SF-268, 13.3 µM (inactive); with IGROV-1 it was 18.8 µM (inactive); with SK-OV-3, 7.98 µM (inactive); in the assay on SK-MEL-2, 8.79 µM (inactive); in the assay with SF-295, 12.4 µM (inactive).

Consider `O=C(CCN(C(=O)O)S(=O)(=O)c1ccc(NC(=O)c2ccccc2)cc1)NC1CCCCC1`, for which the GI50 in the assay on A498, in the assay on OVCAR-3, with HCC 2998, in the assay with SF-539, in the assay with KM12 and with Malme-3M was > 100 µM (inactive) throughout. Moreover, the GI50 is 21.6 µM (inactive) with HT-29; > 100 µM (inactive) in the assay with A549; > 100 µM (inactive) in the assay on UO-31; 27.6 µM (inactive) in the assay on CCRF-CEM; > 100 µM (inactive) in the assay with TK-10; > 100 µM (inactive) with SK-MEL-28. Further, the GI50 with M14, in the assay on SF-268, in the assay with IGROV-1, in the assay with SK-OV-3, with SK-MEL-2 and in the assay with SF-295 was > 100 µM (inactive) in each case.

`COc1ccc(OC(C(=O)O)C(C)C)c2c1CCCC2=O` (stereo unspecified): the GI50 with A498, in the assay with OVCAR-3, in the assay with HCC 2998, in the assay with SF-539, in the assay with KM12 and with Malme-3M was > 100 µM (inactive) throughout. For the same compound, the GI50 in the assay on HT-29, in the assay with A549, in the assay with UO-31, in the assay on CCRF-CEM, with TK-10 and with SK-MEL-28 was > 100 µM (inactive) each time. For the same compound, the GI50 with M14, in the assay with SF-268, in the assay with IGROV-1, with SK-OV-3, in the assay with SK-MEL-2 and in the assay on SF-295 was > 100 µM (inactive) throughout.

Turning to `COc1cc([C@@H]2c3cc4c(cc3[C@@H](NC(=O)c3ccc(C(C)=O)cc3)C3COC(=O)[C@@H]32)OCO4)cc(OC)c1O` (stereo partly specified), the GI50 in the assay on A498 is 1.66 µM (inactive); in the assay on OVCAR-3, 2.38 µM (inactive); with HCC 2998, 1.41 µM (inactive); in the assay with SF-539 it was 0.316 µM (active); with KM12 it was 1.36 µM (inactive); in the assay on Malme-3M it was 0.254 µM (active). The GI50 with HT-29 is 1.5 µM (inactive); with A549, 0.0311 µM (active); in the assay with UO-31, 4.57 µM (inactive); in the assay on CCRF-CEM it was 0.0849 µM (active); with TK-10, 5.81 µM (inactive); in the assay on SK-MEL-28, 2.98 µM (inactive). Moreover, the GI50 in the assay on M14 is 1.51 µM (inactive); with SF-268 it was 1.09 µM (active); in the assay with IGROV-1, 1.03 µM (active); in the assay on SK-OV-3 it was 1.56 µM (inactive); with SK-MEL-2, 2.82 µM (inactive); with SF-295, 0.6 µM (active).

Take `CC1NC(=O)CC(c2ccccc2)N(N=O)C1c1ccccc1` (stereo unspecified): the GI50 with A498 is 8.89 µM (inactive); in the assay with OVCAR-3 it was 33.2 µM (inactive); in the assay on HCC 2998, 35.4 µM (inactive); with SF-539, 23.4 µM (inactive); with KM12, 56.1 µM (inactive); in the assay on Malme-3M it was 52.5 µM (inactive). The GI50 with HT-29 was 29.7 µM (inactive); in the assay with A549, 53.2 µM (inactive); in the assay with UO-31, 50.8 µM (inactive); in the assay with CCRF-CEM, 23.8 µM (inactive); in the assay on SK-MEL-28, 40.8 µM (inactive); in the assay with SF-268 it was 31.8 µM (inactive). Also, the GI50 in the assay on IGROV-1 is 42.1 µM (inactive); in the assay on SK-OV-3, 22.8 µM (inactive); with SK-MEL-2, 39.5 µM (inactive); in the assay on SF-295, 30.7 µM (inactive).
